Measured values from patent publication US20220265657A1, “ADMINISTRATION METHOD AND DOSAGE REGIMEN FOR TREATMENT OF NEURODEGENERATIVE DISEASES USING TRAMETINIB AND MARKERS” (GENUV INC., priority 2019, published 2022).
Like-named read-outs stand apart in the source and are kept apart here.

Columns and labels:
[1] = test system: 5XFAD mice; details: for decrease of plasma cathepsin B level compared to vehicle treated 5XFAD mice: 8-month-old 5XFAD mice, 3 months oral
[2] = test system: SH-SY5Y cells; test: Immunocytochemistry of LC3, LAMP1 and lysotracker in SH-SY5Y cells; format: cell-based
Procedure: (§1) Cell culture: SH-SY5Y neuroblastoma cells were cultured at 37° C., 5% CO2., in Dulbecco's Modified Eagle Medium/Ham's F-12 nutrient mixture (DMEM/F12) (Invitrogen, Carlsbad, Calif.) supplemented with 10% heat-inactivated fetal bovine serum containing 100 units/ml penicillin, 100 μg/ml streptomycin. Primary cortical neuron cultures were derived from embryo day 18 (E18) from ICR mice. The dissociated cells were plated on glass cover slips coated with poly-D-lysine in Neurobasal medium supplemented with 2% B27 (Invitrogen), 100 units/ml penicillin, 100 μg/ml streptomycin, and 2 mM L-glutamine. Primary NSCs from normal mice were isolated from the subventricular zone (SVZ) of 8 week-old C57BL/6 mice brain. NSCs from adult Tg2576 mice brain were obtained from Seoul National University Hospital. […]
(§2) Immunocytochemistry: SH-SY5Y cells or adult NSCs were placed on glass coverslips coated with poly-L-ornithine/laminin or poly-D-lysine, respectively. […] The percentage of coefficient was calculated using the pixels above threshold of fluorescence intensities. […] The fluorescence intensity was observed under a confocal microscopy using a LSM700 microscope (Carl Zeiss). The number of LysoTracker puncta was analyzed with Icy software.

[3] = test system: 5XFAD mice; details: 8-month old 5XFAD mice
[4] = test system: primary cortical neurons; test: Immunofluorescence of LC3, LAMP1 and lysotracker in primary cortical neurons; format: cell-based, ICR mice; details: even in the presence of Aβ1-42 oligomers
Procedure: as §1, §2

[5] = test system: NSCs from adult Tg2576 mice; test: Immunofluorescence staining of NSCs from adult Tg2576 mice; format: cell-based; details: 100 nM, 48 hrs
Procedure: (§3) Cell culture: SH-SY5Y neuroblastoma cells were cultured at 37° C., 5% CO2., in Dulbecco's Modified Eagle Medium/Ham's F-12 nutrient mixture (DMEM/F12) (Invitrogen, Carlsbad, Calif.) supplemented with 10% heat-inactivated fetal bovine serum containing 100 units/ml penicillin, 100 μg/ml streptomycin. Primary cortical neuron cultures were derived from embryo day 18 (E18) from ICR mice. The dissociated cells were plated on glass cover slips coated with poly-D-lysine in Neurobasal medium supplemented with 2% B27 (Invitrogen), 100 units/ml penicillin, 100 μg/ml streptomycin, and 2 mM L-glutamine. Primary NSCs from normal mice were isolated from the subventricular zone (SVZ) of 8 week-old C57BL/6 mice brain. NSCs from adult Tg2576 mice brain were obtained from Seoul National University Hospital. The neurospheres were cultured as previously described (M. Y. Kim, B. S. Moon, K. Y. Choi, Isolation and maintenance of cortical neural progenitor cells in vitro. Methods Mol Biol 1018, 3-10 (2013)). For neurosphere culture from normal mice, the cells were dissociated from brain tissue and grown in N2 medium in 25 cm^2 flasks (SPL, Gyeonggi-do, Korea) in suspension. bFGF (20 ng/ml, Peprotech, Princeton, N.J.) and human EGF (20 ng/ml, Peprotech) were added to the media to allow the cells to form neurospheres. For analyses, NSCs were cultured as a monolayer. For differentiation of NSCs, the neurospheres were dissociated with TrypLE (Invitrogen), plated on 15 μg/ml poly-L-ornithine-(Sigma-Aldrich, St. Louis, Mo.) and 10 μg/ml fibronectin (Gibco)-coated plates, and cultured in bFGF- and EGF-depleted N2 medium for 2 days. For neurosphere culture from Tg2576 mice, the cells were grown in DMEM/F12 supplemented with B27 supplements in 75 cm^2 flasks (SPL) in suspension. bFGF (10 ng/ml) and human EGF (10 ng/ml) were added to the media to allow the cells to form neurospheres. For inducing differentiation and AP expression, the neurospheres were dissociated with pipetting, plated on 15 μg/ml poly-L-ornithine- and 10 μg/ml fibronectin (Gibco)-coated plates, and cultured in bFGF- and EGF-depleted medium for 2 days.
Immunocytochemistry: SH-SY5Y cells or adult NSCs were placed on glass coverslips coated with poly-L-ornithine/laminin or poly-D-lysine, respectively. After washing three times with PBS for 5 min, cells were fixed in 10% formalin for 15 min at room temperature. The cells were then washed with PBS and permeabilized in 0.1% Triton X-100 for 2 min. Cells were placed in blocking solution containing 5% BSA in PBS for 1 h at room temperature and incubated with anti-active caspase 3 (cell signaling), anti-Aβ (thermo), anti-Tau (Cell signaling), anti-LC3 (Cell signaling) and anti-LAMP1 (Abcam) in blocking buffer for 2 h at room temperature. After washing, cells were incubated with goat anti-rabbit antibody conjugated with Alexa Fluor 488 (Thermo) and/or goat anti-rat antibody conjugated with Alexa Fluor 555 (Thermo) overnight. After washing, cells were incubated with 4′,6-diamidino-2-phenylindole (DAPI) for 5 min. Coverslips were mounted using mounting medium (Biomeda, Foster City, Calif.) and visualized by confocal microscopy using a LSM700 microscope (Carl Zeiss). The percentage of coefficient was calculated using the pixels above threshold of fluorescence intensities. […] The fluorescence intensity was observed under a confocal microscopy using a LSM700 microscope (Carl Zeiss). The number of LysoTracker puncta was analyzed with Icy software.

[6] = test system: SH-SY5Y cells; test: Western blot of SH-SY5Y cell lysates; format: cell-based
Procedure: as §3
Lysates were centrifuged at 13,000 rpm for 20 min at 4° C., and the protein content in the supernatant was determined using the Bradford assay (Bio-rad, Hercules, Calif.). For subcellular fractionation, cells were lysed with lysis buffer (250 mM Sucrose, 20 mM HEPES, pH 7.4, 10 mM KCl, 1.5 mM MgCl2, 1 mM EGTA, 1 mM EDTA, 1 mM DTT) containing protease inhibitor for 30 min on ice, followed by centrifugation at 720 g for 5 min at 4° C. Supernatants were centrifuged at 15,000 rpm for 10 min at 4° C., and the resulting supernatant was used as the cytosol fraction. After centrifugation at 720 g for 5 min, pellets were washed with lysis buffer and dissolved in nuclear lysis buffer (50 mM Tris HCl, pH 8.0, 150 mM NaCl, 1% NP40, 0.5% sodium deoxycholate, 0.1% SDS, 10% glycerol) as the nuclear fraction. Protein from each sample was subjected to 8%˜15% SDS-PAGE, and the resolved proteins were transferred to nitrocellulose or polyvinylidene fluoride membrane. The membranes were blocked with 5% nonfat milk powder in Tris-buffered saline/Tween 20 (TBST) for 1 h at room temperature, then incubated with anti-phospho-ERK (Cell signaling), anti-ERK (Cell signaling), anti-LAMP1 (Abcam), anti-LC3 (Cell signaling), anti-cathepsin B (Cell signaling), anti-p62 (Cell signaling), anti-p62 (5114, Cell signaling), anti-phospho-mTOR (5536, Cell signaling), anti-mTOR (2983, Cell signaling), anti-phospho-ULK1 (14202, Cell signaling), anti-ULK1 (8054, Cell signaling), anti-TFEB (852501, Biolegend), and anti-GAPDH (Cell signaling) overnight at 4° C.

[7] = SH-SY5Y cells treated with Aβ1-42
[8] = SH-SY5Y cells, in the presence of Aβ1-42 oligomers

SMILES: CC(=O)Nc1cccc(-n2c(=O)n(C3CC3)c(=O)c3c(Nc4ccc(I)cc4F)n(C)c(=O)c(C)c32)c1 [trametinib]
- decrease of plasma cathepsin B level compared to vehicle treated 5XFAD mice ([1]; 0.05 mg/kg/day): 56.16%
- decrease of plasma cathepsin B level compared to vehicle treated 5XFAD mice ([1]; 0.1 mg/kg/day): 99.2%
- plasma cathepsin B level compared to 5XFAD-vehicle group ([1]; 13-month-old 5XFAD mice, 0.1 mg/kg/day, 1 month oral): decreasing trend
- co-staining of LC3-LAMP1 ([2]; even in the presence of Aβ1-42 oligomers): increased co-staining of LC3-LAMP1
- lysotracker-positive acidic puncta ([2]; in the presence of Aβ1-42 oligomers): increased lysotracker-positive acidic puncta
- MBP levels ([3]; 0.05 mg/kg/day): restored back to levels comparable to that of wild type mice
- MBP levels ([3]; 0.1 mg/kg/day): restored back to levels comparable to that of wild type mice
- co-staining of LC3-LAMP1 [4]: increased co-staining of LC3-LAMP1
- lysotracker-positive acidic puncta [4]: increased
- active caspase 3 [5]: reduced active caspase 3
- autophagosome-lysosome fusions in axon-like elongated elements and soma [5]: markedly increased
- cells with bipolar morphology with elongated neurites [5]: marked increase
- differentiation of NSCs into neuron-like cells [5]: strongly induced differentiation of NSCs into neuron-like cells
- expression of autophagosomes and lysosomes (LC3 and LAMP1 staining) [5]: markedly increased
- increase of LC3-II/LC-I level compared to Aβ1-42 treated alone cells [6, 7]: 65%
- increase of mature cathepsin B level compared to Aβ1-42 treated alone cells [6, 7]: 44%
- nuclear translocation of TFEB [6, 8]: induced nuclear translocation of TFEB
- p62 as a marker of autophagic flux [6, 8]: Degradation of p62
- phosphorylation of mTOR and ULK1 on Ser758 [6, 8]: inhibited the phosphorylation
